Data as given in patent US9962350B2, “Agent for improving normal development rate of fertilized eggs” (SBI Pharmaceuticals Co., Ltd., priority 2014, dated 2018).

Tested on: C57BL/6J fertilized eggs (natural mating)
Experiment: Low-temperature in vitro culture of natural mating-derived fertilized eggs in KSOM or mWM with ALA; embryo development
Format: cell-based, mouse
Conditions: 35° C.
Experimental: According to a routine method of controlled ovarian hyperstimulation, 5 U (units) of equine chorionic gonadotropin (serum gonadotropin) (ASKA Pharmaceutical Co., Ltd.) were intraperitoneally administered to each female mouse of the C57BL/6J lineage (4 weeks old to 6 weeks old). 45 to 48 hours later, 5 U (units) of gonadotropin (human chorionic gonadotropin) (ASKA Pharmaceutical Co., Ltd.) were intraperitoneally administered thereto. Immediately after the administration of gonadotropin, each female mouse was mated with each male mouse of the C57BL/6J lineage. In the next morning, the oviducts were recovered into physiological saline (0.9% (w/v) NaCl) from the female mice that were able to be confirmed to have a vaginal plug. The oviducts were perfused with KSOM or mWM (both were purchased from ARK Resource Co., Ltd., http://www.ark-resource.co.jp/seihin/cryopreservation-liquid/) containing hyaluronidase (approximately 300 μg/ml, Sigma-Aldrich Corp.). After removal of cumulus cells from the obtained fertilized eggs, the fertilized eggs were recovered. In order to remove hyaluronidase, the fertilized eggs were washed with each medium (KSOM or mWM) and maintained in KSOM or mWM (ARK Resource Co., Ltd.) in an incubator of 37° C. and 5% CO2 until the fertilized eggs were recovered from all of the female mice. These two media used are typical media for use in mouse embryo culture. KSOM is a typical low glucose-containing medium, whereas mWM is a high glucose-containing medium.
20 to 50 of the recovered fertilized eggs were transferred into a drop (covered with mineral oil (Sigma-Aldrich Corp.)) consisting of 100 μl of ALA-unsupplemented or ALA-supplemented (1 μM or 3 μM) medium (KSOM or mWM). Subsequently, the fertilized eggs were cultured under two culture conditions: a condition of 37° C. and 5% CO2 and a condition of 35° C. and 5% CO2. The number of 2-cell eggs was counted 24 hours after the fertilized egg harvest, and the number of blastocysts was counted 96 hours thereafter. The development rate was evaluated in the same way as in Example 1. The results about KSOM are shown in Tables 8 to 10 and FIGS. 5 and 6. The results about mWM are shown in Tables 11 to 13 and FIGS. 7 and 8.

[1] = 1 μM ALA, mWM, 96 hr (blastocysts)
[2] = 3 μM ALA, mWM, 96 hr (blastocysts)

## NCC(=O)CCC(=O)O [ALA, 5-aminolevulinic acid]
1 μM ALA, 24 hr
  The number of developed embryos in KSOM: 39
  development rate with the number of fertilized eggs (0 hr) in KSOM defined as 100%: 67%
1 μM ALA, 48 hr
  The number of developed embryos in KSOM: 23
  development rate with the number of 2-cell embryos 24 hours postfertilization in KSOM defined as 100%: 59%
  development rate with the number of fertilized eggs (0 hr) in KSOM defined as 100%: 40%
1 μM ALA, 96 hr
  The number of developed embryos in KSOM: 6
1 μM ALA, 96 hr (blastocysts)
  development rate with the number of 2-cell embryos 24 hours postfertilization in KSOM defined as 100%: 15%
  development rate with the number of fertilized eggs (0 hr) in KSOM defined as 100%: 10%
1 μM ALA, mWM, 24 hr
  The number of developed embryos in mWM: 59
  development rate with the number of fertilized eggs (0 hr) in mWM defined as 100%: 50%
1 μM ALA, mWM, 48 hr
  The number of developed embryos in mWM: 48
  development rate with the number of 2-cell embryos 24 hours postfertilization in mWM defined as 100%: 81%
  development rate with the number of fertilized eggs (0 hr) in mWM defined as 100%: 39%
1 μM ALA, mWM, 96 hours (Tables 12 and 13)
  elevation of development rate to blastocysts vs control (in words): no significant elevation
1 μM ALA, mWM, 96 hr
  The number of developed embryos in mWM: 27
[1]
  development rate with the number of 2-cell embryos 24 hours postfertilization in mWM defined as 100%: 46%
  development rate with the number of fertilized eggs (0 hr) in mWM defined as 100%: 22%
3 μM ALA, mWM, 24 hr
  The number of developed embryos in mWM: 62
  development rate with the number of fertilized eggs (0 hr) in mWM defined as 100%: 50%
3 μM ALA, mWM, 48 hr
  The number of developed embryos in mWM: 62
  development rate with the number of 2-cell embryos 24 hours postfertilization in mWM defined as 100%: 100%
  development rate with the number of fertilized eggs (0 hr) in mWM defined as 100%: 50%
3 μM ALA, mWM, 96 hr
  The number of developed embryos in mWM: 40
[2]
  development rate with the number of 2-cell embryos 24 hours postfertilization in mWM defined as 100%: 65%
  development rate with the number of fertilized eggs (0 hr) in mWM defined as 100%: 32%
